Experimental data as given in patent US6022859A, “Inhibitors of β-amyloid toxicity” (Wisconsin Alumni Research Foundation, priority 1997, dated 2000).
Where a SMILES comes first, the peptide text is derived from it. Where no end group is shown, it is not given here. [ ]: non-standard residue; d: D form. Ahx = NCCCCCC(=O)O

How the values were obtained:
[1] = Solubility of test peptides (Table 1; PBSA); conditions: for Soluble: Table 1
Description: (§4) The solubility and aggregation properties of the test peptides were assessed by visual observation, analytical ultracentrifugation, and/or dynamic light scattering.

Aβ toxicity = conditions: literature; cited from earlier work
Aβ [2] = conditions: literature, cited from earlier work
PC-12 cells [3] = assay: Cellular toxicity (MTT assay): effect on Aβ(25-35) toxicity; assay type: cell-based; conditions: co-incubation with Aβ(25-35)
Description: (§1) Solutions of recognition or hybrid peptides were prepared by direct dissolution of lyophilized peptide into sterile PBS (with antibiotics). Aβ(1-39) was dissolved in 0.1% TFA at 10 mg/ml, then diluted twenty-fold into sterile PBS (with antibiotics) or PBS containing the hybrid or recognition peptides. Solutions were prepared at 2:1 or 1:1 peptide:Aβ molar ratio. The samples were incubated at room temperature for 7 days, then diluted five-fold with medium and incubated for one day. As a control, PBS was diluted 5:1 with medium and added to some wells.
15-25-K6 shares essentially no homology with Aβ(25-35), which also forms fibrillar aggregates and is toxic to cells. Aβ(25-35) decreased MTT reduction to 45% of controls; co-incubation of 15-25-K6 with Aβ(25-35) had no effect on the toxicity of Aβ(25-35).

Aβ(1-39) [4] = molecular target: T1, Aβ(1-39) (Homo sapiens, UniProt P05067); assay: Circular dichroism spectroscopy, effect of peptide on Aβ(1-39) spectra; assay type: biochemical; conditions: Aβ(1-39):peptide 1:2 molar ratio
T1 construct: A peptide homologous to the first 39 residues of Aβ, Aβ(1-39), was purchased from AnaSpec, Inc; purchased AnaSpec, Inc. (San Jose, Calif.)
T1 sequence (P05067 672-710): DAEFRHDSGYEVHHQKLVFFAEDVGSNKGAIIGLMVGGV
Description: (§2) β(1-39), 15-25-K6, or a mixture of β(1-39) and 15-25-K6 (1:2 molar ratio) were dissolved in 0.01 M phosphate buffer, pH 7.2. The final concentration was 0.5 mg/ml for each peptide. The solution was passed through a 0.45 μm Millipore (Bedford, Mass.) filter to remove dust and then degassed. Circular dichroism spectra in the far UV (190-240 nm) were obtained using a modified Cary Model 60 spectropolarimeter (On-line Instrument Systems, Bogart, Calif.) and analyzed for secondary structure as described (Shen, C.-L., et al., Biophys. J. 65:2383-2395, 1993).
(§3) Circular dichroism spectra of Aβ(1-39) and 15-25-K6 in phosphate buffer (0.1 M. pH 7.4) were collected and quantitatively analyzed for secondary structure. Aβ(1-39) was 65% β-sheet and 30% random coil (spectra not shown), in line with previous measurements (Shen, C.-L., et al., supra, 1994). The secondary structure of 15-25-K6 was essentially the same (64% Aβ-sheet, 36% random coil, data not shown).

Aβ(1-39) [5] = molecular target: T1, Aβ(1-39); assay: Dynamic light scattering, Aβ(1-39) aggregation kinetics; assay type: biochemical; conditions: Aβ 0.5 mg/ml, peptide:Aβ molar ratio 2:1
Description: Lyophilized Aβ(1-39) was solubilized in 0.1% TFA at 10 mg/ml, then diluted twenty-fold into PBSA or into PBSA containing the test peptide. PBSA was double-filtered through a 0.22 μm filter prior to use. pH was adjusted to 7.4 with 0.5 N NaOH, then the sample was immediately filtered through a 0.45 μm filter directly into a clean light scattering cuvette. In all cases Aβ(1-39) concentration was 0.5 mg/ml and the molar ratio of test peptide to Aβ was 2:1 unless otherwise indicated. Autocorrelation functions at 90° scattering angle were collected as described previously (Shen, et al., 1994, supra). Data were fit using the method of cumulants to derive and apparent hydrodynamic radius.
The effect of the test peptides on aggregation kinetics of Aβ(1-39) was assessed by dynamic light scattering (FIG. 1). FIG. 1 graphs the effect of recognition and hybrid peptides on Aβ aggregation kinetics. Final Aβ concentration was 0.5 mg/ml, Aβ:peptide molar ratio was 1:2 except where indicated. The hydrodynamic radius (measured at a 90° scattering angle) was measured as a function of time.

Aβ(1-39) [6] = molecular target: T1, Aβ(1-39); assay: Static light scattering, Aβ(1-39) aggregate molecular weight and morphology (Kratky plot); assay type: biochemical; conditions: peptide:Aβ 2:1 (16-20-K6 1:2)
Description: Solutions of Aβ(1-39) alone or with test peptide at a 2:1 peptide:Aβ molar ratio were prepared as described above. Solutions were incubated at room temperature for 24 hours, after which scattered intensity data as a function of angle were collected and analyzed as described elsewhere (Shen, C.-L. and Murphy, Biophys. J., 1995, supra).
The effect of the test peptide on aggregate size and morphology was probed with static light scattering. […] Thus, the average molecular weight of Aβ(1-39) aggregates was not dramatically affected by any of the peptides tested.
A convenient tool for abstracting particle shape information from angular dependence data is the so-called Kratky plot. FIGS. 2A and B are Kratky plots of Aβ-peptide solutions. Aβ(1-39) was co-incubated with recognition (A) or hybrid (B) peptides for 24 hours, after which SLS data were collected, analyzed, and plotted as Kratky plots. In all cases, Aβ(1-39) concentration was 0.5 mg/ml and the peptide:Aβ molar ratio was 2:1, except for 16-20-K6 for which the molar ratio was lowered to 1:2. In FIG. 2, q is the scattering vector, which is related to the scattering angle, R is the Rayleigh ratio, a function of the scattering intensity, c is the concentration, and K is an instrument constant. Referring to FIG. 2A, the rising curves with an intermediate plateau are characteristic of semiflexible linear chains. […]

Aβ(1-39) [7] = molecular target: T1, Aβ(1-39); assay: Electron microscopy of Aβ(1-39) fibrils; assay type: biochemical; conditions: aged approximately one week
Description: Solutions of Aβ(1-39) alone (0.5 mg/ml) or with 1 mg/ml 15-25-K6 were prepared as described above and aged at room temperature for approximately one week. A drop of the peptide solution was placed on a Pioloform coated 300 mesh electron microscope copper grid. After blotting, a drop of 1% ammonium molybdate was placed on the grid while being held with fine forceps. The grid was blotted on filter paper and allowed to dry before observing the specimen in a JEOL (Peabody, Mass.) 100 CX Electron Microscope at 60 kV. To further examine the aggregates, electron micrographs were taken. FIG. 3A and B are electron micrographs of (A) Aβ(1-39) alone and (B) Aβ(1-39) with 15-25-K6. Magnification is 72,500x.

[8] = Circular dichroism spectroscopy, secondary structure of peptide alone; assay type: physicochemical; conditions: phosphate buffer (0.1 M, pH 7.4)
Description: as §2, §3

Aβ(25-35) = molecular target: T2, Aβ(25-35) (Homo sapiens, UniProt P05067); assay: ThT fluorescence spectroscopy with Aβ(25-35); assay type: biochemical; conditions: mixed with Aβ(25-35)
T2 construct: A peptide homologous to the 25-35 residues of Aβ, Aβ(25-35), was purchased from Sigma; purchased Sigma (St. Louis, Mo.)

PC-12 cells [9] = assay: Cellular toxicity (MTT assay): protection from Aβ(1-39) toxicity; assay type: cell-based; conditions: both molar ratios tested (2:1 and 1:1)
Description: as §1
Freshly-prepared solutions of Aβ(1-39) were not toxic to the cells, consistent with other reports in the literature (Shearman, et al., supra). None of the test peptides alone were toxic. […] FIG. 4 graphs the effect of recognition and hybrid peptides on Aβ toxicity. Aβ(0.5 mg/ml) was incubated with the recognition peptide at a 1:2 Aβ:peptide molar ratio (A), or with the hybrid peptides at a 1:1 or 1:2 Aβ:peptide molar ratio (B), for one week, following which the solution was diluted five-fold and added to monolayer cultures of PC-12 cells. Cell viability was assessed with the MTT assay; results are reported relative to untreated wells. […] The ability of each peptide to protect cells from Aβ toxicity was assessed by a upper-tailed t-test; *, p<0.01; **, p<0.001.

Aβ(1-39) [10] = molecular target: T1, Aβ(1-39); assay: ThT fluorescence spectroscopy with Aβ(1-39); assay type: biochemical; conditions: one week incubation at room temperature
Description: A few samples used for cellular toxicity assays were tested for ThT fluorescence after one week aging and prior to dilution into cell culture medium. ThT (Sigma, St. Louis, Mo.) was dissolved at 100 μM in PBSA. Forty μl peptide solution and 40 μl ThT stock solution were mixed with 920 μl PBSA and briefly vortexed. Fluorescence emission spectra were taken using a Model M-3 Alphascan (Photon Technology International, South Brunswick, N.J.) spectrofluorimeter, with excitation at 450 nm. An increase in fluorescence with a maximum at 482 nm is indicative of amyloid (LeVine, H. Protein Sci. 2:404-410, 1993). Fluorescence intensity for diluted ThT in the absence of peptide was determined and subtracted from sample intensities. ThT fluorescence intensity was measured for Aβ-amyloid(1-39) alone or mixed with 18-25 or 15-25-K6 after one week incubation at room temperature. Samples were diluted 25-fold just prior to measurement. […] Because 16-25 was not soluble in PBS, the assay could not be repeated in a like manner for that peptide; however, a parallel experiment was conducted by dissolution of 16-25 or 18-25 into 35% ACN/TFA followed by mixing with Aβ(1-39) and dilution into PBS.

[11] = Self-aggregation of test peptides alone (sedimentation equilibrium ultracentrifugation, dynamic light scattering, visual observation); assay type: physicochemical; conditions: peptide alone
Description: as §4

Aβ [12] = molecular target: Aβ (Homo sapiens, UniProt P05067); conditions: literature; cited from earlier work
Aβ (Homo sapiens, UniProt P05067), sequence (P05067 672-711 limits assumed): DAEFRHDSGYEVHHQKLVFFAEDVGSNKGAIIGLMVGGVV

CC(C)C[C@H](NC(=O)[C@@H](N)CCCCN)C(=O)N[C@H](C(=O)N[C@@H](Cc1ccccc1)C(=O)O)C(C)C [16-19, KLVF] (H-KLVF-OH)
Soluble [1]: yes

CC(C)C[C@H](NC(=O)[C@@H](N)CCCCN)C(=O)N[C@H](C(=O)N[C@@H](Cc1ccccc1)C(=O)N[C@@H](Cc1ccccc1)C(=O)O)C(C)C [16-20, KLVFF]
Soluble [1]: yes

Nc1c(/N=N/c2ccc(-c3ccc(/N=N/c4cc(S(=O)(=O)O)c5ccccc5c4N)cc3)cc2)cc(S(=O)(=O)O)c2ccccc12 [Congo red]
effect on Aβ toxicity (Aβ toxicity): reduce Aβ toxicity
effect on Aβ aggregation / fibril formation (Aβ [2]): disrupt Aβ aggregation

CCCCCCCCCCCCCCCC[N+]1(C)CCCCC1.[Br-] [hexadecyl-N-methylpiperidinium bromide]
effect on Aβ aggregation / fibril formation (Aβ [2]): inhibits Aβ fibril formation

OC[C@H]1O[C@@H]2O[C@H]3[C@H](O)[C@@H](O)[C@@H](O[C@H]4[C@H](O)[C@@H](O)[C@@H](O[C@H]5[C@H](O)[C@@H](O)[C@@H](O[C@H]6[C@H](O)[C@@H](O)[C@@H](O[C@H]7[C@H](O)[C@@H](O)[C@@H](O[C@H]8[C@H](O)[C@@H](O)[C@@H](O[C@H]1[C@H](O)[C@H]2O)O[C@@H]8CO)O[C@@H]7CO)O[C@@H]6CO)O[C@@H]5CO)O[C@@H]4CO)O[C@@H]3CO [β-Cyclodextrin]
effect on Aβ toxicity (Aβ toxicity): partially reduces Aβ toxicity

FAEDVG [20-25, FAEDVG]
Soluble [1]: yes

FAEDVGKKKKKK [20-25-K6, FAEDVGKKKKKK]
solubility in PBSA [1]: readily soluble
Soluble [1]: yes

FFAEDVG [19-25, FFAEDVG]
Soluble [1]: yes

GQKLVFFAEDVGGaKKKKKK (GQKLVFFAEDVGG[Ahx]KKKKKK) [15-25-K6]
effect on toxicity of Aβ(25-35) (PC-12 cells [3]): no effect
effect on circular dichroism spectra of Aβ(1-39) (Aβ(1-39) [4]): did not significantly alter
effect on Aβ aggregate size / growth rate (hydrodynamic radius vs time) (Aβ(1-39) [5]): dramatic increase
increase in molecular weight of Aβ aggregates (Aβ(1-39) [6]; 24 hours after mixing): 2-2.5 fold
effect on Aβ(1-39) aggregate shape / morphology (Kratky plot) (Aβ(1-39) [6]; 24 hours co-incubation): greatest effect on the particle shape
effect on Aβ(1-39) fibril morphology (electron micrographs) (Aβ(1-39) [7]): did not prevent fibril formation but did appear to reduce the average length of fibrils, and increase the extent of fibril entanglement
random coil content [8]: 36%
β-sheet content [8]: 64%
effect on ThT fluorescence of Aβ(25-35) (Aβ(25-35)): neither a positive nor a negative effect
protection against Aβ(1-39) toxicity (PC-12 cells [9]): intermediate in protective effect
effect on ThT fluorescence intensity of Aβ(1-39) (Aβ(1-39) [10]): reduced the ThT fluorescence intensity of Aβ(1-39) somewhat
aggregation state by sedimentation equilibrium ultracentrifugation [11]: monomeric

KKLVFFA
interaction with Aβ (Aβ [12]): interacts with the homologous sequence in Aβ

KLVFFKKKKKK [16-20-K6, KLVFFKKKKKK]
solubility in PBSA [1]: readily soluble
Soluble [1]: yes

QKLVTTAE [literature octapeptide with substitutions for the two Phe residues at positions 19 and 20]
effect on Aβ fibril formation (Aβ [2]; 10-fold molar excess, electron microscopy): inhibited fibril formation

VFFAEDVG [18-25, VFFAEDVG]
Soluble [1]: yes

VLFKF [16-20S, VLFKF]
Soluble [1]: yes
